From ChEMBL document CHEMBL1212738, “Phenotypic and genotypic characterization of Enterobacteriaceae with decreased susceptibility to carbapenems: results from large hospital-based surveillance studies in China” (2010)
≈ marks a conversion by molar mass, not a printed value.

Legend:
Escherichia coli [1] = assay: Antimicrobial activity against carbapenem-resistant Escherichia coli PU96 deficient in TEM-1, CTX-M-14, CMY-2, ompC/F by CLSI method; type: functional
Escherichia coli [2] = assay: Antimicrobial activity against Escherichia coli C600 transconjugant WH76T expressing IMP-4, TEM-1, CTX-M-3, qnrS1 by CLSI method
Klebsiella pneumoniae [3] = assay: Antimicrobial activity against Klebsiella pneumoniae CY1T expressing SHV-11, DHA-1 by CLSI method; type: functional
Escherichia coli [4] = assay: Antimicrobial activity against carbapenem-resistant Escherichia coli PU102 deficient in TEM-1, CTX-M-14, CMY-2, aac(6')-Ib, ompC DEc, ompF by CLSI method; type: functional
Klebsiella pneumoniae [5] = assay: Antimicrobial activity against carbapenem-resistant Klebsiella pneumoniae PU105 deficient TEM-1, SHV-12, CTX-M-14, DHA-1, qnrB10/B4-like, aac(6')-Ib-cr, ompK35/36 by CLSI method; type: functional
Klebsiella pneumoniae [6] = assay: Antimicrobial activity against carbapenem-resistant Klebsiella pneumoniae ZJ70 deficient in KPC-2, SHV-11, CTX-M-14, ompK35/36 by CLSI method; type: functional
Klebsiella pneumoniae [7] = assay: Antimicrobial activity against carbapenem-resistant Klebsiella pneumoniae PU3 deficient in DHA-1, aac(6')-Ib-cr, ompK35/36 by CLSI method; type: functional
Klebsiella pneumoniae [8] = assay: Antimicrobial activity against carbapenem-resistant Klebsiella pneumoniae ZJ71 deficient in KPC-2, TEM-1, SHV-11, CTX-M-14, ompK35 by CLSI method; type: functional
Klebsiella pneumoniae [9] = assay: Antimicrobial activity against carbapenem-resistant Klebsiella pneumoniae SX67 deficient in SHV-2, CTX-M-14, DHA-1, qnrB6/S1, aac(6')-Ib-cr, ompK35/36 by CLSI method; type: functional
Enterobacter cloacae [10] = assay: Antimicrobial activity against carbapenem-resistant Enterobacter cloacae GX56 deficient in ompC and expressing low levels of ompF DE by CLSI method; type: functional
Enterobacter cloacae [11] = assay: Antimicrobial activity against carbapenem-resistant Enterobacter cloacae NJ89 deficient in CTX-M-14, ompC/F by CLSI method; type: functional
Enterobacter cloacae [12] = assay: Antimicrobial activity against carbapenem-resistant Enterobacter cloacae RJ94 deficient in IMP-4, TEM-1, CTX-M-3, ompC by CLSI method; type: functional
Escherichia coli [13] = assay: Antimicrobial activity against Escherichia coli ZJ87T expressing KPC-2 by CLSI method; type: functional
Citrobacter freundii [14] = assay: Antimicrobial activity against Citrobacter freundii SZ63 expressing IMP-4, qnrS1by CLSI method; type: functional
Klebsiella pneumoniae [15] = assay: Antimicrobial activity against Klebsiella pneumoniae GZ64 expressing IMP-4, ompK35/36 by CLSI method; type: functional
Enterobacter cloacae [16] = assay: Antimicrobial activity against carbapenem-resistant Enterobacter cloacae SZ92 deficient in IMP-4, TEM-1, CTX-M-14, DHA-1, qnrB10/B4-like, aac(6')-Ib, ompC by CLSI method; type: functional
Klebsiella pneumoniae [17] = assay: Antimicrobial activity against carbapenem-resistant Klebsiella pneumoniae PU4 deficient in SHV-1, DHA-1, ompK35/36 by CLSI method; type: functional
Klebsiella pneumoniae [18] = assay: Antimicrobial activity against Klebsiella pneumoniae ZJ68T expressing CTX-M-15 by CLSI method; type: functional
Klebsiella pneumoniae [19] = assay: Antimicrobial activity against Klebsiella pneumoniae ZJ71T expressing KPC-2 by CLSI method; type: functional
Escherichia coli [20] = assay: Antimicrobial activity against Escherichia coli PU101T expressing CMY-2 by CLSI method; type: functional
Escherichia coli [21] = assay: Antimicrobial activity against carbapenem-resistant Escherichia coli PU101 deficient in TEM-1, CTX-M-14, CMY-2, ompC by CLSI method; type: functional
Enterobacter cloacae [22] = assay: Antimicrobial activity against carbapenem-resistant Enterobacter cloacae SZ93 deficient in ompC by CLSI method; type: functional
Klebsiella pneumoniae [23] = assay: Antimicrobial activity against carbapenem-resistant Klebsiella pneumoniae CY1 deficient in SHV-11, DHA-1, ompK35/36 by CLSI method; type: functional
Escherichia coli [24] = assay: Antimicrobial activity against Escherichia coli C600 transconjugant SZ62T expressing IMP-4, qnrS1by CLSI method
Escherichia coli [25] = assay: Antimicrobial activity against Escherichia coli PU60T expressing CMY-2 by CLSI method; type: functional
Klebsiella pneumoniae [26] = assay: Antimicrobial activity against Klebsiella pneumoniae ZJ99T expressing KPC-2, CTX-M-3, qnrS1 by CLSI method; type: functional
Escherichia coli [27] = assay: Antimicrobial activity against Escherichia coli HX74T expressing CTX-M-3 by CLSI method; type: functional
Klebsiella pneumoniae [28] = assay: Antimicrobial activity against carbapenem-resistant Klebsiella pneumoniae GZ84 deficient in SHV-11, aac(6')-Ib-cr, ompK35 by CLSI method; type: functional
Klebsiella pneumoniae [29] = assay: Antimicrobial activity against Klebsiella pneumoniae WH97 expressing SHV-33, aac(6')-Ib, ompK35 DE by CLSI method; type: functional
Klebsiella pneumoniae [30] = assay: Antimicrobial activity against Klebsiella pneumoniae ZJ99 expressing KPC-2, CTX-M-3, qnrS1, ompK35 DE by CLSI method; type: functional
Klebsiella pneumoniae [31] = assay: Antimicrobial activity against Klebsiella pneumoniae GZ64T expressing IMP-4 by CLSI method; type: functional
Klebsiella pneumoniae [32] = assay: Antimicrobial activity against Klebsiella pneumoniae FZ47T expressing IMP-8, TEM-1, CTX-M-14, qnrB2, aac(6')-Ib by CLSI method; type: functional
Escherichia coli [33] = assay: Antimicrobial activity against Escherichia coli C600 transconjugant XJ81T expressing TEM-1, SHV-12, aac(6')-Ib by CLSI method
Klebsiella pneumoniae [34] = assay: Antimicrobial activity against carbapenem-resistant Klebsiella pneumoniae FZ47 deficient in IMP-8, TEM-1, SHV-11, CTX-M-14, qnrB2, aac(6')-Ib, ompK35/36 by CLSI method; type: functional
Klebsiella pneumoniae [35] = assay: Antimicrobial activity against carbapenem-resistant Klebsiella pneumoniae PU104 deficient in TEM-1, SHV-11, CTX-M-15, qnrS1, ompK35/36 by CLSI method; type: functional
Citrobacter freundii [36] = assay: Antimicrobial activity against Citrobacter freundii SZ62 expressing IMP-4, TEM-1, CMY-2, qnrS1, aac(6')-Ib-cr by CLSI method; type: functional
Klebsiella pneumoniae [37] = assay: Antimicrobial activity against Klebsiella pneumoniae WH76 expressing IMP-4, TEM-1, SHV-14, CTX-M-3, qnrS1 by CLSI method; type: functional
Klebsiella pneumoniae [38] = assay: Antimicrobial activity against carbapenem-resistant Klebsiella pneumoniae FZ49 deficient in IMP-8, TEM-1, SHV-11, CTX-M-14, qnrB2, aac(6')-Ib, ompK35/36 by CLSI method; type: functional
Escherichia coli [39] = assay: Antimicrobial activity against carbapenem-resistant Escherichia coli PU60 deficient in TEM-1, CMY-2, ompC/F by CLSI method; type: functional
Enterobacter cloacae [40] = assay: Antimicrobial activity against carbapenem-resistant Enterobacter cloacae NJ88 deficient in CTX-M-14, ompC/F by CLSI method; type: functional
Enterobacter cloacae [41] = assay: Antimicrobial activity against carbapenem-resistant Enterobacter cloacae NJ90 deficient in CTX-M-14, ompC/F by CLSI method; type: functional

Work on `NCC[C@H](O)C(=O)N[C@@H]1C[C@H](N)[C@@H](O[C@H]2O[C@H](CN)[C@@H](O)[C@H](O)[C@H]2O)[C@H](O)[C@H]1O[C@H]1O[C@H](CO)[C@@H](O)[C@H](N)[C@H]1O` [AMIKACIN] yielded an MIC (Escherichia coli [1]) of 2 µg/mL (≈ 3.42 µM), an MIC (Escherichia coli [2]) of 1 µg/mL (≈ 1.71 µM) and an MIC (Klebsiella pneumoniae [3]) of over 256 µg/mL. It also gave an MIC (Escherichia coli [4]) of 64 µg/mL (≈ 109 µM), an MIC (Klebsiella pneumoniae [5]) of over 256 µg/mL and an MIC (Klebsiella pneumoniae [6]) of over 256 µg/mL. The MIC (Klebsiella pneumoniae [7]) was 16 µg/mL (≈ 27.3 µM), the MIC (Klebsiella pneumoniae [8]) was over 256 µg/mL and the MIC (Klebsiella pneumoniae [9]) was over 256 µg/mL. The MIC (Enterobacter cloacae [10]) was over 256 µg/mL, the MIC (Enterobacter cloacae [11]) was over 256 µg/mL and the MIC (Enterobacter cloacae [12]) was 0.5 µg/mL (≈ 0.854 µM). It also gave an MIC (Escherichia coli [13]) of 1 µg/mL (≈ 1.71 µM), an MIC (Citrobacter freundii [14]) of over 256 µg/mL and an MIC (Klebsiella pneumoniae [15]) of 1 µg/mL (≈ 1.71 µM). The MIC (Enterobacter cloacae [16]) was 1 µg/mL (≈ 1.71 µM), the MIC (Klebsiella pneumoniae [17]) was over 256 µg/mL and the MIC (Klebsiella pneumoniae [18]) was over 256 µg/mL. The MIC (Klebsiella pneumoniae [19]) was 1 µg/mL (≈ 1.71 µM), the MIC (Escherichia coli [20]) was 1 µg/mL (≈ 1.71 µM) and the MIC (Escherichia coli [21]) was 4 µg/mL (≈ 6.83 µM). The MIC (Enterobacter cloacae [22]) was 1 µg/mL (≈ 1.71 µM), the MIC (Klebsiella pneumoniae [23]) was over 256 µg/mL and the MIC (Escherichia coli [24]) was 1 µg/mL (≈ 1.71 µM). The MIC (Escherichia coli [25]) was 1 µg/mL (≈ 1.71 µM), the MIC (Klebsiella pneumoniae [26]) was 2 µg/mL (≈ 3.42 µM) and the MIC (Escherichia coli [27]) was 2 µg/mL (≈ 3.42 µM). It also gave an MIC (Klebsiella pneumoniae [28]) of 16 µg/mL (≈ 27.3 µM), an MIC (Klebsiella pneumoniae [29]) of 1 µg/mL (≈ 1.71 µM) and an MIC (Klebsiella pneumoniae [30]) of 0.5 µg/mL (≈ 0.854 µM). It also gave an MIC (Klebsiella pneumoniae [31]) of 1 µg/mL (≈ 1.71 µM), an MIC (Klebsiella pneumoniae [32]) of over 256 µg/mL and an MIC (Escherichia coli [33]) of 16 µg/mL (≈ 27.3 µM). The MIC (Klebsiella pneumoniae [34]) was over 256 µg/mL, the MIC (Klebsiella pneumoniae [35]) was 0.5 µg/mL (≈ 0.854 µM) and the MIC (Citrobacter freundii [36]) was over 256 µg/mL. The MIC (Klebsiella pneumoniae [37]) was 1 µg/mL (≈ 1.71 µM), the MIC (Klebsiella pneumoniae [38]) was over 256 µg/mL and the MIC (Escherichia coli [39]) was 32 µg/mL (≈ 54.6 µM). It also gave an MIC (Enterobacter cloacae [40]) of over 256 µg/mL and an MIC (Enterobacter cloacae [41]) of over 256 µg/mL.

`C[C@@H](O)[C@H]1C(=O)N2C(C(=O)O)=C(SCCNC=N)C[C@H]12` [IMIPENEM ANHYDROUS] was tested, and the MIC (Escherichia coli [1]) was 32 µg/mL (≈ 107 µM), the MIC (Escherichia coli [2]) was 4 µg/mL (≈ 13.4 µM) and the MIC (Klebsiella pneumoniae [3]) was 0.25 µg/mL (≈ 0.835 µM). The MIC (Escherichia coli [4]) was 16 µg/mL (≈ 53.4 µM), the MIC (Klebsiella pneumoniae [5]) was 32 µg/mL (≈ 107 µM) and the MIC (Klebsiella pneumoniae [6]) was over 256 µg/mL. It also gave an MIC (Klebsiella pneumoniae [7]) of 32 µg/mL (≈ 107 µM), an MIC (Klebsiella pneumoniae [8]) of 16 µg/mL (≈ 53.4 µM) and an MIC (Klebsiella pneumoniae [9]) of 4 µg/mL (≈ 13.4 µM). The MIC (Enterobacter cloacae [10]) was 4 µg/mL (≈ 13.4 µM), the MIC (Enterobacter cloacae [11]) was 16 µg/mL (≈ 53.4 µM) and the MIC (Enterobacter cloacae [12]) was 8 µg/mL (≈ 26.7 µM). It also gave an MIC (Escherichia coli [13]) of 8 µg/mL (≈ 26.7 µM), an MIC (Citrobacter freundii [14]) of 4 µg/mL (≈ 13.4 µM) and an MIC (Klebsiella pneumoniae [15]) of 16 µg/mL (≈ 53.4 µM). It also gave an MIC (Enterobacter cloacae [16]) of 8 µg/mL (≈ 26.7 µM), an MIC (Klebsiella pneumoniae [17]) of 16 µg/mL (≈ 53.4 µM) and an MIC (Klebsiella pneumoniae [18]) of 0.5 µg/mL (≈ 1.67 µM). The MIC (Klebsiella pneumoniae [19]) was 8 µg/mL (≈ 26.7 µM), the MIC (Escherichia coli [20]) was 0.25 µg/mL (≈ 0.835 µM) and the MIC (Escherichia coli [21]) was 32 µg/mL (≈ 107 µM). The MIC (Enterobacter cloacae [22]) was 4 µg/mL (≈ 13.4 µM), the MIC (Klebsiella pneumoniae [23]) was 32 µg/mL (≈ 107 µM) and the MIC (Escherichia coli [24]) was 4 µg/mL (≈ 13.4 µM). The MIC (Escherichia coli [25]) was 0.5 µg/mL (≈ 1.67 µM), the MIC (Klebsiella pneumoniae [26]) was 16 µg/mL (≈ 53.4 µM) and the MIC (Klebsiella pneumoniae [28]) was 1 µg/mL (≈ 3.34 µM). It also gave an MIC (Klebsiella pneumoniae [29]) of 2 µg/mL (≈ 6.68 µM), an MIC (Klebsiella pneumoniae [30]) of 16 µg/mL (≈ 53.4 µM) and an MIC (Klebsiella pneumoniae [31]) of 2 µg/mL (≈ 6.68 µM). It also gave an MIC (Klebsiella pneumoniae [32]) of 4 µg/mL (≈ 13.4 µM), an MIC (Escherichia coli [33]) of 0.25 µg/mL (≈ 0.835 µM) and an MIC (Klebsiella pneumoniae [34]) of 8 µg/mL (≈ 26.7 µM). It also gave an MIC (Klebsiella pneumoniae [35]) of 2 µg/mL (≈ 6.68 µM), an MIC (Citrobacter freundii [36]) of 4 µg/mL (≈ 13.4 µM) and an MIC (Klebsiella pneumoniae [37]) of 2 µg/mL (≈ 6.68 µM). For the same compound, the MIC (Klebsiella pneumoniae [38]) was 8 µg/mL (≈ 26.7 µM), the MIC (Escherichia coli [39]) was 32 µg/mL (≈ 107 µM) and the MIC (Enterobacter cloacae [40]) was 16 µg/mL (≈ 53.4 µM). The MIC (Enterobacter cloacae [41]) was 16 µg/mL (≈ 53.4 µM).
